The results in this text go back to US20230250060A1 (IFM Due, Inc., priority 2022, published 2023).

For the assay, the target named is T1, STING (Homo sapiens, UniProt Q86WV6, G230A/H232R/R293Q/R71H).
T1 construct: host or cells: THP1-Dual KO-IFNAR2 cells
T1 sequence (Q86WV6 whole entry R71H/G230A/H232R/R293Q): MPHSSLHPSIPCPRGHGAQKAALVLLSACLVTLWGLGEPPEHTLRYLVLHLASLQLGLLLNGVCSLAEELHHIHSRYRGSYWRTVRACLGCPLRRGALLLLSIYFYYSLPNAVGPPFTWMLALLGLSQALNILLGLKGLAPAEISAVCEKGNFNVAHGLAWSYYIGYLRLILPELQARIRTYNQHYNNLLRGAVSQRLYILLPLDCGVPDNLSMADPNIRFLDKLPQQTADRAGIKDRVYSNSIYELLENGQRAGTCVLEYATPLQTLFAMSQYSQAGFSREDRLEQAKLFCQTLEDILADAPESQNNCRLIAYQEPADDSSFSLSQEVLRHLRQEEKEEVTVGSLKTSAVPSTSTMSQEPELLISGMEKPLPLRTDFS
The experiment in a line: STING reporter assay (luciferase) in THP1-Dual KO-IFNAR2 cells stimulated with 2′3′cGAMP. To be noted: 2′3′cGAMP 15 μM final, 24 h, luciferase reporter activity, read-out: Pharmaron, THP1_IFNAR2 STING 24 h Luci Normalized: GeoMean EC50. Format: cell-based. The procedure: STING pathway activation by the compounds described herein was measured using TTIP1-Dual™ cells (KO-IFNAR2).
TTIP1-Dual™ KO-IFNAR2 Cells (obtained from invivogen) were maintained in RPMI, 10% FCS, 5 ml P/S, 2 mM L-glut, 10 mM Hepes, and 1 mM sodium pyruvate. Compounds were spotted in empty 384 well tissue culture plates (Greiner 781182) by Echo for a final concentration of 0.0017-100 μM. Cells were plated into the TC plates at 40 μL per well, 2×10E6 cells/mL. For activation with STING ligand, 2′3′cGAMP (MW 718.38, obtained from Invivogen), was prepared in Optimem media.
The following solutions were prepared for each 1×384 plate: • Solution A: 2 mL Optimem with one of the following stimuli: • […] • Solution B: 2 mL Optimem with […] Lipofectamine 2000→Incubate 5 min at RT
2 mL of solution A and 2 ml Solution B was mixed and incubated for 20 min at room temperature (RT). 20 μL of transfection solution (A+B) was added on top of the plated cells, with a final 2′3′cGAMP concentration of 15 μM. The plates were then centrifuged immediately at 340 g for 1 minute, after which they were incubated at 37° C., 5% CO2, >98% humidity for 24 h. Luciferase reporter activity was then measured. EC50 values were calculated by using standard methods known in the art.
Luciferase reporter assay: 10 μL of supernatant from the assay was transferred to white 384-plate with flat bottom and squared wells. One pouch of QUANTI-Luc™ Plus was dissolved in 25 mL of water. 100 μL of QLC Stabilizer per 25 mL of QUANTI-Luc™ Plus solution was added. 50 μL of QUANTI-Luc™ Plus/QLC solution per well was then added. Luminescence was measured on a Platereader (e.g., Spectramax I3X (Molecular Devices GF3637001)).
Luciferase reporter activity was then measured. EC50 values were calculated by using standard methods known in the art.
In general terms: A reporter such as luciferase makes a cellular process visible.
In the case of `O=C(Nc1c[nH]c2ccc(OCc3ccc(C(F)(F)F)cc3)cc12)c1ccccn1` [Compound 149, N-(5-((4-(trifluoromethyl)benzyl)oxy)-1H-indol-3-yl)picolinamide], the EC50 lay within 5000 to 100000 nM.

As to `O=C(CC1CC1)Nc1c[nH]c2ccc(OCc3ccc(C(F)(F)F)cc3)cc12` [Compound 150, 2-cyclopropyl-N-(5-((4-(trifluoromethyl)benzyl)oxy)-1H-indol-3-yl)acetamide], the concentration for a half-maximal effect (EC50) lay in the range of 200 to 1000 nM.

On to `O=C(Nc1c[nH]c2ccc(OCc3ccc(C(F)(F)F)cc3)cc12)C1CC2(CCC2)C1` [Compound 151, N-(5-((4-(trifluoromethyl)benzyl)oxy)-1H-indol-3-yl)spiro[3.3]heptane-2-carboxamide], for which the EC50 was in the range of 200 to 1000 nM.

For `O=C(Nc1c[nH]c2ccc(OCc3ccc(C(F)(F)F)cc3)cc12)c1ncccc1F` [Compound 152, 3-fluoro-N-(5-((4-(trifluoromethyl)benzyl)oxy)-1H-indol-3-yl)picolinamide], the EC50 was 200 to 1000 nM.

For `Cc1noc(C)c1C(=O)Nc1c[nH]c2ccc(OCc3ccc(C(F)(F)F)cc3)cc12` [Compound 153, 3,5-dimethyl-N-(5-((4-(trifluoromethyl)benzyl)oxy)-1H-indol-3-yl)isoxazole-4-carboxamide], the EC50 fell in the range of 200 to 1000 nM.

Regarding `O=C(Nc1c[nH]c2ccc(OCc3ccc(C(F)(F)F)cc3)cc12)c1cncs1` [Compound 154, N-(5-((4-(trifluoromethyl)benzyl)oxy)-1H-indol-3-yl)thiazole-5-carboxamide], the EC50 fell in the range of 200 to 1000 nM.

On to `O=C(Nc1c[nH]c2ccc(O[C@H]3C[C@@H](c4ccc(C(F)(F)F)cc4)C3)cc12)C1CC2(CCC2)C1` [Compound 155, N-(5-((1s,3s)-3-(4-(trifluoromethyl)phenyl)cyclobutoxy)-1H-indol-3-yl)spiro[3.3]heptane-2-carboxamide], for which the EC50 is 200 to 1000 nM.

In the case of `O=C(Nc1c[nH]c2ccc(O[C@H]3C[C@@H](c4ccc(C(F)(F)F)cc4)C3)cc12)C1CC2(CC2)C1` [Compound 156, N-(5-((1s,3s)-3-(4-(trifluoromethyl)phenyl)cyclobutoxy)-1H-indol-3-yl)spiro[2.3]hexane-5-carboxamide], the EC50 lay in the range of 200 to 1000 nM.

Consider `O=C(Nc1c[nH]c2ccc(OCC[C@@H]3C[C@@H]4CN(CC(F)(F)F)C[C@@H]4C3)cc12)C1CC2(CCC2)C1` [Compound 157, N-(5-(2-((3aR,5r,6aS)-2-(2,2,2-trifluoroethyl)octahydrocyclopenta[c]pyrrol-5-yl)ethoxy)-1H-indol-3-yl)spiro[3.3]hexane-2-carboxamide], for which the EC50 fell in the range of 200 to 1000 nM.

For `O=C(Nc1c[nH]c2ccc(OCC[C@@H]3C[C@@H]4CN(CC(F)(F)F)C[C@@H]4C3)cc12)C1CC12CC2` (stereo partly drawn) [Compound 158, N-(5-(2-((3aR,5r,6aS)-2-(2,2,2-trifluoroethyl)octahydrocyclopenta[c]pyrrol-5-yl)ethoxy)-1H-indol-3-yl)spiro[2.2]pentane-1-carboxamide], the EC50 lay in the range of 1000 to 5000 nM.

On to `Cc1oncc1C(=O)Nc1c[nH]c2ccc(OCC[C@@H]3C[C@@H]4CN(CC(F)(F)F)C[C@@H]4C3)cc12` [Compound 159, 5-methyl-N-(5-(2-((3aR,5r,6aS)-2-(2,2,2-trifluoroethyl)octahydrocyclopenta[c]pyrrol-5-yl)ethoxy)-1H-indol-3-yl)isoxazole-4-carboxamide], for which the EC50 lay in the range of 5000 to 100000 nM.

Consider `O=C(Nc1c[nH]c2ccc(CCOc3ccc(C(F)(F)F)cc3)cc12)c1ccn[nH]1` [Compound 160, N-(5-(2-(4-(trifluoromethyl)phenoxy)ethyl)-1H-indol-3-yl)-1H-pyrazole-5-carboxamide], for which the EC50 lay in the range of 200 to 1000 nM.

In the case of `O=C(Nc1c[nH]c2ccc(OCCc3ccc(C(F)(F)F)cc3)cc12)c1ncco1` [Compound 161, N-(5-(4-(trifluoromethyl)phenethoxy)-1H-indol-3-yl)oxazole-2-carboxamide], the half-maximal effective concentration (EC50) fell in the range of 200 to 1000 nM.

For `Cn1nccc1C(=O)Nc1c[nH]c2ccc(OCc3ccc(C(F)(F)F)cc3)cc12` [Compound 162, 1-methyl-N-(5-((4-(trifluoromethyl)benzyl)oxy)-1H-indol-3-yl)-1H-pyrazole-5-carboxamide], the half-maximal effective concentration (EC50) was 200 to 1000 nM.

`CC12CC(C(=O)Nc3c[nH]c4ccc(OCc5ccc(C(F)(F)F)cc5)cc34)(C1)C2` [Compound 163, 3-methyl-N-(5-((4-(trifluoromethyl)benzyl)oxy)-1H-indol-3-yl)bicyclo[1.1.1]pentane-1-carboxamide]: the EC50 was in the range of 200 to 1000 nM.

In the case of `O=C(Nc1c[nH]c2ccc(OCc3ccc(C(F)(F)F)cc3)cc12)C12CC(C1)C2` [Compound 164, N-(5-((4-(trifluoromethyl)benzyl)oxy)-1H-indol-3-yl)bicyclo[1.1.1]pentane-1-carboxamide], the concentration for a half-maximal effect (EC50) is 200 to 1000 nM.

Take `O=C(Nc1c[nH]c2ccc(OCc3ccc(C(F)(F)F)cc3)cc12)c1cscn1` [Compound 165, N-(5-((4-(trifluoromethyl)benzyl)oxy)-1H-indol-3-yl)thiazole-4-carboxamide]: the 50% effective concentration (EC50) lay in the range of 1000 to 5000 nM.

Regarding `O=C(Nc1c[nH]c2ccc(O[C@H]3C[C@@H](c4ccc(C(F)(F)F)cc4)C3)cc12)c1ccncc1` [Compound 166, N-(5-((1s,3s)-3-(4-(trifluoromethyl)phenyl)cyclobutoxy)-1H-indol-3-yl)isonicotinamide], the EC50 lay within 200 to 1000 nM.

For `O=C(Nc1c[nH]c2ccc(O[C@H]3C[C@@H](c4ccc(C(F)(F)F)cc4)C3)cc12)c1ccn[nH]1` [Compound 167, N-(5-((1s,3s)-3-(4-(trifluoromethyl)phenyl)cyclobutoxy)-1H-indol-3-yl)-1H-pyrazole-5-carboxamide], the EC50 lay within 40 to 200 nM.

Turning to `Cn1nccc1C(=O)Nc1c[nH]c2ccc(O[C@H]3C[C@@H](c4ccc(C(F)(F)F)cc4)C3)cc12` [Compound 168, 1-methyl-N-(5-((1s,3s)-3-(4-(trifluoromethyl)phenyl)cyclobutoxy)-1H-indol-3-yl)-1H-pyrazole-5-carboxamide], the EC50 fell in the range of 200 to 1000 nM.

As for `O=C(Nc1c[nH]c2ccc(O[C@H]3C[C@@H](c4ccc(C(F)(F)F)cc4)C3)cc12)c1cccnc1` [Compound 169, N-(5-((1s,3s)-3-(4-(trifluoromethyl)phenyl)cyclobutoxy)-1H-indol-3-yl)nicotinamide], the EC50 is 40 to 200 nM.

`O=C(Nc1c[nH]c2ccc(O[C@H]3C[C@@H](c4ccc(C(F)(F)F)cc4)C3)cc12)c1ccccn1` [Compound 170, N-(5-((1s,3s)-3-(4-(trifluoromethyl)phenyl)cyclobutoxy)-1H-indol-3-yl)picolinamide]: the EC50 is 1000 to 5000 nM.

For the compound `CC12CC(C(=O)Nc3c[nH]c4ccc(O[C@H]5C[C@@H](c6ccc(C(F)(F)F)cc6)C5)cc34)(C1)C2` [Compound 171, 3-methyl-N-(5-((1s,3s)-3-(4-(trifluoromethyl)phenyl)cyclobutoxy)-1H-indol-3-yl)bicyclo[1.1.1]pentane-1-carboxamide], the EC50 is 200 to 1000 nM.

As for `O=C(Nc1c[nH]c2ccc(O[C@H]3C[C@@H](c4ccc(C(F)(F)F)cc4)C3)cc12)C1CC12CC2` (some centres unmarked) [Compound 172, N-(5-((1s,3s)-3-(4-(trifluoromethyl)phenyl)cyclobutoxy)-1H-indol-3-yl)spiro[2.2]pentane-1-carboxamide], the EC50 fell in the range of 200 to 1000 nM.

As for `O=C(Nc1c[nH]c2ccc(O[C@H]3C[C@@H](c4ccc(C(F)(F)F)cc4)C3)cc12)C12CC(C1)C2` [Compound 173, N-(5-((1s,3s)-3-(4-(trifluoromethyl)phenyl)cyclobutoxy)-1H-indol-3-yl)bicyclo[1.1.1]pentane-1-carboxamide], the EC50 is 200 to 1000 nM.

With `O=C(Nc1c[nH]c2ccc(O[C@H]3C[C@@H](c4ccc(C(F)(F)F)cc4)C3)cc12)c1ncccc1F` [Compound 174, 3-fluoro-N-(5-((1s,3s)-3-(4-(trifluoromethyl)phenyl)cyclobutoxy)-1H-indol-3-yl)picolinamide], the half-maximal effective concentration (EC50) is 200 to 1000 nM.

On to `O=C(Nc1c[nH]c2ccc(O[C@H]3C[C@@H](c4ccc(C(F)(F)F)cc4)C3)cc12)c1nccs1` [Compound 175, N-(5-((1s,3s)-3-(4-(trifluoromethyl)phenyl)cyclobutoxy)-1H-indol-3-yl)thiazole-2-carboxamide], for which the concentration for a half-maximal effect (EC50) lay in the range of 200 to 1000 nM.

As to `Cc1oncc1C(=O)Nc1c[nH]c2ccc(O[C@H]3C[C@@H](c4ccc(C(F)(F)F)cc4)C3)cc12` [Compound 176, 5-methyl-N-(5-((1s,3s)-3-(4-(trifluoromethyl)phenyl)cyclobutoxy)-1H-indol-3-yl)isoxazole-4-carboxamide], the EC50 lay in the range of 5000 to 100000 nM.

As to `Cc1noc(C)c1C(=O)Nc1c[nH]c2ccc(O[C@H]3C[C@@H](c4ccc(C(F)(F)F)cc4)C3)cc12` [Compound 177, 3,5-dimethyl-N-(5-((1s,3s)-3-(4-(trifluoromethyl)phenyl)cyclobutoxy)-1H-indol-3-yl)isoxazole-4-carboxamide], the EC50 lay in the range of 40 to 200 nM.

As usually defined, the EC50 is the concentration at which the effect is half-maximal.
